Assay results from ChEMBL document CHEMBL1201862, “PubChem BioAssay data set” (2004).
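Cells were grown in 96-well plates and exposed to each compound for 48 hours at five concentrations; endpoints were interpolated linearly between bracketing concentrations, or set to the highest concentration if not reached. Abbreviation: GI50, concentration required for 50% inhibition of growth.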 Calls of active or inactive are those of the source. Cut-off read from the data, not from the text of the source: active = GI50 up to about 1.1 µM and inactive = higher.

How the values were obtained:
Test in all cases: growth of human tumour cells (NCI), 48 h
UACC-62 = test system: UACC-62
SW-620 = test system: SW-620
SF-268 = test system: SF-268
KM-20L2 = test system: KM-20L2
UACC-257 = test system: UACC-257
NCI-H522 = test system: NCI-H522
OVCAR-4 = test system: OVCAR-4
HT-29 = test system: HT-29
MOLT-4 = test system: MOLT-4
Malme-3M = test system: Malme-3M
OVCAR-8 = test system: OVCAR-8
NCI-H226 = test system: NCI-H226
SF-539 = test system: SF-539
KM12 = test system: KM12
ACHN = test system: ACHN
SK-MEL-2 = test system: SK-MEL-2
DU-145 = test system: DU-145
PC-3 = test system: PC-3
Hs-578T = test system: Hs-578T
NCI/ADR-RES = test system: NCI/ADR-RES

Measured: GI50

COC(=O)C(=O)OC1(C(C)=O)CC2(c3ccccc3)OC1(c1ccccc1)c1ccccc12 (stereo unspecified)
inactive: UACC-62 14.9 µM | SW-620 16.4 µM | SF-268 20 µM | KM-20L2 15.6 µM | UACC-257 16.2 µM | NCI-H522 17.7 µM | OVCAR-4 20.2 µM | HT-29 17 µM | MOLT-4 22 µM | Malme-3M 19.1 µM | OVCAR-8 15.9 µM | NCI-H226 17.3 µM | SF-539 13 µM

C=C(COC(C)=O)CC(/C=C(\C)CCC=C(C)C)OC(C)=O (stereo unspecified)
inactive: UACC-62 > 100 µM | KM12 > 100 µM | SW-620 > 100 µM | SF-268 > 100 µM | KM-20L2 > 100 µM | ACHN > 100 µM | NCI-H522 > 100 µM | SK-MEL-2 > 100 µM | OVCAR-4 > 100 µM | HT-29 > 100 µM | MOLT-4 48.4 µM | OVCAR-8 > 100 µM | NCI-H226 > 100 µM | SF-539 > 100 µM

CCCCCCCCCCCCC(Br)C(=O)NCC(N)=O (stereo unspecified)
inactive: UACC-62 5.86 µM | KM12 14.2 µM | SW-620 16 µM | SF-268 3.42 µM | KM-20L2 20.4 µM | UACC-257 11.4 µM | ACHN 15 µM | NCI-H522 2.28 µM | SK-MEL-2 11.7 µM | OVCAR-4 3.55 µM | HT-29 15.8 µM | Malme-3M 13.2 µM | OVCAR-8 4.79 µM | NCI-H226 1.67 µM | SF-539 14.4 µM

COc1ccc(/N=N/c2c(-c3ccccc3)nn(C(=O)CC(=O)Nc3ccccc3Cl)c2-c2ccccc2)cc1
inactive: UACC-62 > 100 µM | KM12 87.1 µM | SW-620 > 100 µM | SF-268 82.8 µM | KM-20L2 > 100 µM | UACC-257 > 100 µM | ACHN > 100 µM | NCI-H522 > 100 µM | OVCAR-4 57 µM | HT-29 47.1 µM | MOLT-4 3.42 µM | Malme-3M > 100 µM | OVCAR-8 > 100 µM | NCI-H226 > 100 µM | SF-539 > 100 µM

OC/C=C(\I)CCCOCOCc1ccccc1
inactive: UACC-62 34.6 µM | KM12 > 100 µM | SW-620 44 µM | SF-268 27.7 µM | KM-20L2 29.5 µM | ACHN 32.3 µM | NCI-H522 23.3 µM | SK-MEL-2 19.2 µM | OVCAR-4 24.5 µM | HT-29 36.2 µM | MOLT-4 3.1 µM | OVCAR-8 41.4 µM | NCI-H226 27.4 µM | SF-539 50.6 µM

O=c1oc2c3ccc4ccccc4c3n(CCN3CCOCC3)c2c2ccccc12
inactive: UACC-62 3.68 µM | KM12 > 100 µM | SW-620 5.73 µM | SF-268 19.7 µM | KM-20L2 > 100 µM | UACC-257 > 100 µM | ACHN 5.6 µM | NCI-H522 2.48 µM | OVCAR-4 > 100 µM | HT-29 27.4 µM | MOLT-4 1.69 µM | Malme-3M > 100 µM | OVCAR-8 > 100 µM | SF-539 3.76 µM

COC1OC(COCc2ccc(Cl)cc2)C(OCc2ccc(Cl)cc2)C1O (stereo unspecified)
inactive: UACC-62 16.2 µM | KM12 15 µM | SW-620 15.4 µM | SF-268 17.1 µM | KM-20L2 17.3 µM | UACC-257 16.3 µM | ACHN 18.6 µM | NCI-H522 12.8 µM | SK-MEL-2 16.3 µM | OVCAR-4 20.6 µM | HT-29 17.9 µM | MOLT-4 20.2 µM | Malme-3M 15.8 µM | OVCAR-8 26.2 µM | SF-539 16.3 µM

CN1CCOC1(C)c1ccccc1 (stereo unspecified)
inactive: UACC-62 > 100 µM | DU-145 > 100 µM | KM12 > 100 µM | SW-620 > 100 µM | SF-268 > 100 µM | PC-3 > 100 µM | Hs-578T > 100 µM | NCI/ADR-RES > 100 µM | UACC-257 > 100 µM | ACHN > 100 µM | NCI-H522 > 100 µM | SK-MEL-2 > 100 µM | OVCAR-4 > 100 µM | HT-29 > 100 µM | MOLT-4 > 100 µM | Malme-3M > 100 µM | OVCAR-8 > 100 µM | NCI-H226 > 100 µM | SF-539 > 100 µM

Cc1cc(=O)nc(S(=O)(=O)NC(=S)Nc2ccc(Cl)cc2)[nH]1
inactive: UACC-62 > 100 µM | DU-145 > 100 µM | KM12 > 100 µM | SW-620 > 100 µM | SF-268 > 100 µM | PC-3 > 100 µM | Hs-578T > 100 µM | NCI/ADR-RES > 100 µM | UACC-257 > 100 µM | ACHN > 100 µM | NCI-H522 27.1 µM | SK-MEL-2 > 100 µM | OVCAR-4 > 100 µM | HT-29 > 100 µM | MOLT-4 10.2 µM | Malme-3M > 100 µM | OVCAR-8 > 100 µM | NCI-H226 > 100 µM | SF-539 > 100 µM

O=C1Nc2nc3ccccc3n2N=C2CCCC12 (stereo unspecified)
inactive: UACC-62 > 100 µM | KM12 > 100 µM | SW-620 > 100 µM | SF-268 > 100 µM | KM-20L2 > 100 µM | UACC-257 > 100 µM | ACHN > 100 µM | SK-MEL-2 > 100 µM | OVCAR-4 > 100 µM | HT-29 > 100 µM | MOLT-4 > 100 µM | Malme-3M > 100 µM | OVCAR-8 > 100 µM | SF-539 > 100 µM

CC1(C)CN=C(Nc2ccc(F)cc2)S1
inactive: UACC-62 > 100 µM | DU-145 > 100 µM | KM12 > 100 µM | SW-620 > 100 µM | SF-268 > 100 µM | PC-3 > 100 µM | Hs-578T > 100 µM | NCI/ADR-RES > 100 µM | UACC-257 > 100 µM | ACHN > 100 µM | NCI-H522 > 100 µM | SK-MEL-2 > 100 µM | OVCAR-4 > 100 µM | HT-29 > 100 µM | MOLT-4 > 100 µM | Malme-3M > 100 µM | OVCAR-8 > 100 µM | NCI-H226 > 100 µM | SF-539 > 100 µM

O=C(NCCOC(=O)OCCNC(=O)NC1CCCCC1)NC1CCCCC1
inactive: UACC-62 > 100 µM | DU-145 > 100 µM | KM12 > 100 µM | SW-620 > 100 µM | SF-268 > 100 µM | PC-3 > 100 µM | Hs-578T > 100 µM | NCI/ADR-RES > 100 µM | UACC-257 > 100 µM | ACHN > 100 µM | NCI-H522 > 100 µM | SK-MEL-2 > 100 µM | OVCAR-4 91.6 µM | HT-29 > 100 µM | MOLT-4 > 100 µM | Malme-3M > 100 µM | OVCAR-8 > 100 µM | NCI-H226 > 100 µM | SF-539 44.3 µM

CCCCCCC(C)OC(=O)/C=C(\CC(=O)OC(C)CCCCCC)C(=O)OC(C)CCCCCC (stereo unspecified)
inactive: UACC-62 > 100 µM | SW-620 > 100 µM | SF-268 > 100 µM | KM-20L2 > 100 µM | UACC-257 > 100 µM | ACHN > 100 µM | NCI-H522 > 100 µM | SK-MEL-2 > 100 µM | OVCAR-4 > 100 µM | HT-29 > 100 µM | MOLT-4 > 100 µM | Malme-3M > 100 µM | OVCAR-8 > 100 µM | NCI-H226 > 100 µM | SF-539 > 100 µM

O=C1C(NS(=O)(=O)c2ccccc2)=C(n2ccnc2)C(=O)c2ccccc21
inactive: UACC-62 > 100 µM | DU-145 > 100 µM | KM12 > 100 µM | SW-620 > 100 µM | SF-268 > 100 µM | PC-3 > 100 µM | Hs-578T > 100 µM | NCI/ADR-RES > 100 µM | UACC-257 > 100 µM | ACHN > 100 µM | NCI-H522 > 100 µM | SK-MEL-2 > 100 µM | OVCAR-4 > 100 µM | HT-29 > 100 µM | MOLT-4 > 100 µM | Malme-3M 96.4 µM | OVCAR-8 > 100 µM | NCI-H226 > 100 µM | SF-539 > 100 µM

CC(=O)N1NC(c2ccccc2)=NC(=O)C1c1cc(C)c(O)c(C)c1 (stereo unspecified)
inactive: UACC-62 20.3 µM | DU-145 22.7 µM | KM12 36 µM | SW-620 44.4 µM | SF-268 16.9 µM | PC-3 27.8 µM | Hs-578T 29.8 µM | NCI/ADR-RES 21.9 µM | UACC-257 31.2 µM | ACHN 20.7 µM | NCI-H522 17.8 µM | SK-MEL-2 28.1 µM | OVCAR-4 19.8 µM | HT-29 72.4 µM | MOLT-4 > 100 µM | Malme-3M 17.7 µM | OVCAR-8 17.6 µM | NCI-H226 23.9 µM | SF-539 20.4 µM

Cc1nc2sccn2c1C(=O)NNC(N)=S
inactive: UACC-62 > 100 µM | KM12 > 100 µM | SW-620 > 100 µM | SF-268 > 100 µM | KM-20L2 > 100 µM | UACC-257 > 100 µM | ACHN > 100 µM | NCI-H522 > 100 µM | SK-MEL-2 > 100 µM | HT-29 > 100 µM | MOLT-4 > 100 µM | Malme-3M > 100 µM | OVCAR-8 > 100 µM | NCI-H226 > 100 µM | SF-539 > 100 µM

O=C(CC(=O)C(F)(F)F)c1csc2ccccc12
inactive: UACC-62 32.2 µM | KM12 38.9 µM | SW-620 38.5 µM | SF-268 30.8 µM | KM-20L2 39.3 µM | UACC-257 32.9 µM | ACHN 34.5 µM | NCI-H522 23.9 µM | SK-MEL-2 22 µM | MOLT-4 17.8 µM | Malme-3M 26.4 µM | OVCAR-8 18.5 µM | SF-539 31.6 µM
